Experimental data: US7709484B1, “Substituted melanocortin receptor-specific piperazine compounds” (Palatin Technologies, Inc., priority 2004, dated 2010)

How the values were obtained:
[1] = target: hMC1-R (Homo sapiens, UniProt Q01726); experiment: Competitive inhibition binding assay, 125I-NDP-α-MSH, hMC1-R membranes; settings: 1 μM test compound; 0.4 nM 125I-NDP-α-MSH; mean of triplicate; results less than 0% reported as 0%; read-out: Inhibition at 1 μM MC1-R (human)
Method: (§1) Competitive inhibition assay. A competitive inhibition binding assay was conducted using membranes prepared from hMC1-R or B-16 mouse melanoma cells (containing MC1-R), hMC3-R, hMC4-R, and hMC5-R, and using 0.4 nM ^125I-NDP-α-MSH (New England Nuclear, Boston, Mass., USA) in 50 mM HEPES buffer containing 1 mM MgCl2, 2 mM CaCl2, and 5 mM KCl, at pH 7.2. The assay tube also contained a chosen concentration of the test compound of this invention, typically a 1 μM concentration, for determining its efficacy in inhibiting the binding of ^125I-NDP-α-MSH to its receptor. Non-specific binding was measured by complete inhibition of binding of ^125I-NDP-α-MSH in the assay with the presence of 1 μM α-MSH.
(§2) Incubation was for 90 minutes at room temperature, after which the assay mixture was filtered and the membranes washed three times with ice cold buffer. The filter was dried and counted in a gamma counter for remaining radioactivity bound to the membranes. 100% specific binding was defined as the difference in radioactivity (cpm) bound to cell membranes in the absence and presence of 1 μM α-MSH. The cpm obtained in the presence of test compounds are normalized with respect to 100% specific binding to determine the percent inhibition of ^125I-NDP-a-MSH binding. Each assay was conducted in triplicate and the actual mean values are described, with results less than 0% reported as 0%.

[2] = target: hMC3-R (Homo sapiens, UniProt P41968); experiment: Competitive inhibition binding assay, 125I-NDP-α-MSH, hMC3-R membranes; settings: 1 μM test compound; 0.4 nM 125I-NDP-α-MSH; mean of triplicate; results less than 0% reported as 0%; read-out: Inhibition at 1 μM MC3-R
Chain of hMC3-R (P41968 whole entry): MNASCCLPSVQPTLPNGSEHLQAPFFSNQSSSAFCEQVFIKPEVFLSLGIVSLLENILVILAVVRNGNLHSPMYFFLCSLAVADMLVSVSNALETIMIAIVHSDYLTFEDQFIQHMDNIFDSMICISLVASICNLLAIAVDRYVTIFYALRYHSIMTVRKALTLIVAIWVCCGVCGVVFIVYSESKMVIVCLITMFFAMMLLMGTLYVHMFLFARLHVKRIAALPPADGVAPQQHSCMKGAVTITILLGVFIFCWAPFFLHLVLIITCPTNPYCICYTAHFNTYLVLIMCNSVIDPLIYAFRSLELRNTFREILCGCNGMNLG
Method: as §1, §2

[3] = target: hMC4-R (Homo sapiens, UniProt P32245); experiment: Competitive inhibition binding assay, 125I-NDP-α-MSH, hMC4-R membranes; settings: 1 μM test compound; 0.4 nM 125I-NDP-α-MSH; mean of triplicate; results less than 0% reported as 0%; read-out: Inhibition at 1 μM MC4-R
Chain of hMC4-R (P32245 whole entry): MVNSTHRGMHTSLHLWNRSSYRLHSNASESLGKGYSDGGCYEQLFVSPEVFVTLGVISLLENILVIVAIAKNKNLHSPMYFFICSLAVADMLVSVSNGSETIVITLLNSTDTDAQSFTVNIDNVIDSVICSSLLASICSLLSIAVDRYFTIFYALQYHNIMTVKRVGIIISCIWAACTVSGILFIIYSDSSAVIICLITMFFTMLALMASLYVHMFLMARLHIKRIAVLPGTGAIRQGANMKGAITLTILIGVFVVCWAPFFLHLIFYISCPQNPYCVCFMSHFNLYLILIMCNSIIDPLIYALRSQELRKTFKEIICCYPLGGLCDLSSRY
Method: as §1, §2

[4] = target: hMC5-R (Homo sapiens, UniProt P33032); experiment: Competitive inhibition binding assay, 125I-NDP-α-MSH, hMC5-R membranes; settings: 1 μM test compound; 0.4 nM 125I-NDP-α-MSH; mean of triplicate; results less than 0% reported as 0%; read-out: Inhibition at 1 μM MC5-R
Chain of hMC5-R (P33032 whole entry): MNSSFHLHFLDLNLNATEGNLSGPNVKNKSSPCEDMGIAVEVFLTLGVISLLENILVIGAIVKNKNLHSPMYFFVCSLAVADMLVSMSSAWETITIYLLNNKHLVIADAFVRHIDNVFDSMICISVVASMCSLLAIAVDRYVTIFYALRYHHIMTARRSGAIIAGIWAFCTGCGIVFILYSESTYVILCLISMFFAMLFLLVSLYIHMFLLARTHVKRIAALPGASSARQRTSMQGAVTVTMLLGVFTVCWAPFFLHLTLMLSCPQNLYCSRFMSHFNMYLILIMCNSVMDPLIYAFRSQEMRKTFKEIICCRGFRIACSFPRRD
Method: as §1, §2

[5] = target: T1, B-16 mouse melanoma cells (containing MC1-R) (Mus musculus, UniProt Q01727); experiment: Competitive inhibition binding assay, 125I-NDP-α-MSH, B-16 mouse melanoma cell membranes; settings: 1 μM test compound; 0.4 nM 125I-NDP-α-MSH; mean of triplicate; results less than 0% reported as 0%; read-out: Inhibition at 1 μM MC1-R (murine)
T1 construct: B-16 mouse melanoma cells (containing MC1-R); endogenous in cells; host or cells: B-16 mouse melanoma cells
T1 sequence (Q01727 whole entry): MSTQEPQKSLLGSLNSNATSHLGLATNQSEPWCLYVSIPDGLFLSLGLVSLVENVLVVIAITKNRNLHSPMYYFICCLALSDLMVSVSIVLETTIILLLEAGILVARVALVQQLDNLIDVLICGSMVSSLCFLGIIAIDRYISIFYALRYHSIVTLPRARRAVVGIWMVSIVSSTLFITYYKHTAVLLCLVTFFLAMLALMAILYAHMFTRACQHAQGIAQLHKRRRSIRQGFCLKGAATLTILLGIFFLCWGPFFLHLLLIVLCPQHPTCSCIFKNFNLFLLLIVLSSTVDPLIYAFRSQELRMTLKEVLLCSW
Method: as §1, §2

Chain of hMC1-R (Q01726 whole entry): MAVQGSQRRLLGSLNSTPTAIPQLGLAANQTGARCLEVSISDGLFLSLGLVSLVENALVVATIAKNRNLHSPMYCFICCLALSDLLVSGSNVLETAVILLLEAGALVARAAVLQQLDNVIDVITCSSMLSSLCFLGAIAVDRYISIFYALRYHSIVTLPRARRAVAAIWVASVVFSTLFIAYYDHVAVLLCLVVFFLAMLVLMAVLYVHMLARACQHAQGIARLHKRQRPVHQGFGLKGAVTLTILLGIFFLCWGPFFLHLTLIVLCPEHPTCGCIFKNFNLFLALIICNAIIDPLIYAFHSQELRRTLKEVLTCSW

Compound	inhibition at 1 µM [1]	inhibition at 1 µM [2]	inhibition at 1 µM [3]	inhibition at 1 µM [4]	inhibition at 1 µM [5]
N[C@H](Cc1ccccc1)C(=O)N1C[C@H](Cc2ccccc2)NC[C@H]1Cc1ccc2ccccc2c1 [Example 1, (R)-2-Amino-1-((2R,5S)-5-benzyl-2-naphthalen-2-ylmethyl-piperazin-1-yl)-3 phenyl-propan-1-one]	0%	14%	33%	8%	
O=C(CCc1ccc(Cl)cc1Cl)N1C[C@H](Cc2ccccc2)NC[C@H]1Cc1ccc2ccccc2c1 [Example 2, 1-((2R,5S)-5-Benzyl-2-naphthalen-2-ylmethyl-piperazin-1-yl)-3-(2,4-dichloro-phenyl)-propan-1-one]	9%	9%	18%	6%	
N[C@H](Cc1ccc2ccccc2c1)C(=O)N1C[C@H](Cc2ccccc2)NC[C@H]1Cc1ccc2ccccc2c1 [Example 3, (R)-2-Amino-1-((2R,5S)-5-benzyl-2-naphthalen-2-ylmethyl-piperazin-1-yl)-3-naphthalen-2-yl-propan-1-one]	10%	19%	39%	21%	
N[C@@H](Cc1ccccc1)C(=O)N1C[C@H](Cc2ccccc2)NC[C@H]1Cc1ccc2ccccc2c1 [Example 4, (S)-2-Amino-1-((2R,5S)-5-benzyl-2-naphthalen-2-ylmethyl-piperazin-1-yl)-3-phenyl-propan-1-one]	6%	13%	25%	11%	
N[C@H](Cc1ccc(Cl)cc1Cl)C(=O)N1C[C@H](Cc2ccccc2)NC[C@H]1Cc1ccc2ccccc2c1 [Example 5, (R)-2-Amino-1-((2R,5S)-5-benzyl-2-naphthalen-2-ylmethyl-piperazin-1-yl)-3-(2,4-dichloro-phenyl)-propan-1-one]	0%	12%	34%	22%	
N[C@H](Cc1ccccc1)C(=O)N1C[C@H](Cc2ccccc2)NC[C@H]1Cc1ccccc1 [Example 6, (R)-2-Amino-1-((2R,5S)-2,5-dibenzyl-piperazin-1-yl)-3-phenyl-propan-1-one]	0%	12%	4%	13%	0%
N[C@H](Cc1ccccc1)C(=O)N1C[C@@H](Cc2ccc3ccccc3c2)NC[C@@H]1Cc1ccccc1 [Example 7, (R)-2-Amino-1-((2S,5R)-2-benzyl-5-naphthalen-2-ylmethyl-piperazin-1-yl)-3-phenyl-propan-1-oneylamino-3-phenyl-propan-1-one]	17%	9%	16%	13%	0%
